Assay [1] deals with Sphingosine 1-phosphate receptor 2 (Homo sapiens, UniProt O95136). Nature of the assay: (§1) In Vitro Binding Assay: I. Master Stock SolutionUnless specified otherwise, the sample compounds were diluted in 100% anhydrous DMSO including all dilutions. The compounds were tested as the citrate salt (1 equivalent per molecule). If the sample compound is provided in a different solvent all master stock dilutions are performed in the specified solvent. All control wells contained identical solvent final concentrations as the sample compound wells.II. Compound Plate AssayThe sample compounds were transferred from a master stock solution into a daughter plate that was used in the assay. Each sample compound was diluted into an assay buffer (1×HBSS with 20 mM HEPES, 2.5 mM Probenecid, and 0.4% Free Fatty Acid BSA) at an appropriate concentration to obtain final specified concentrations.III. Antagonist Assay FormatUsing the EC80 values that were determined real-time, stimulated all pre-incubated sample compounds and reference antagonists (if applicable) were compared with the EC80 values of reference agonist. These were read for 180 seconds using the […] (This assay added reference agonist to respective wells-then fluorescences measurements were collected to calculate IC50 values).

Assay [2] concerns the target Sphingosine 1-phosphate receptor 5 (Homo sapiens, UniProt Q9H228). Described as §1.

SMILES strings stand for the structures.

Sphingosine 1-phosphate receptor 2, sequence (O95136 whole entry): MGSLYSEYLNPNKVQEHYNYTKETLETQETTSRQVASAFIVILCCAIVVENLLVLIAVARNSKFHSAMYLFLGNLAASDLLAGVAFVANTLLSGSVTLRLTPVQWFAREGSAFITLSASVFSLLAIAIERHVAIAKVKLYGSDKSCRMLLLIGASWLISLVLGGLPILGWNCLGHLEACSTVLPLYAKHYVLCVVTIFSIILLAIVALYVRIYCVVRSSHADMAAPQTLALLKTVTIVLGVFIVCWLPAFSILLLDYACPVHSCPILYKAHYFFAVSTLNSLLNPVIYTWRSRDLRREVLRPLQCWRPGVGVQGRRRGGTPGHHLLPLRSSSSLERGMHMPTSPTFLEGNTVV
Sphingosine 1-phosphate receptor 5, sequence (Q9H228 whole entry): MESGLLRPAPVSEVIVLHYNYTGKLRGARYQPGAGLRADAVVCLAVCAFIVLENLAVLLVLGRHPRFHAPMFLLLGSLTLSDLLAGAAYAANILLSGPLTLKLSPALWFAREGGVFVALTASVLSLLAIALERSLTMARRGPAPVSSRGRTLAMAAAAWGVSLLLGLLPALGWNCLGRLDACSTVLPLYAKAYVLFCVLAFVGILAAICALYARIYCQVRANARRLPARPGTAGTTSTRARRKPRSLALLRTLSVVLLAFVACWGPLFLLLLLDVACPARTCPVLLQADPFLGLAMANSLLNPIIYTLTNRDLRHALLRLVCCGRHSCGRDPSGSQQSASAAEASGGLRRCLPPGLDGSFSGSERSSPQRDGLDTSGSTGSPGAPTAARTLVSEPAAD

For the molecule `C=CCN(NC(=O)Nc1cc(Cl)nc(Cl)c1)c1cc(C(C)C)c2c(C)nn(C)c2n1`, the values for the IC50 in assay [1] and in assay [2] were 52 nM and 110 nM, respectively.

For `Cc1nn(C)c2nc(N(CCCO)NC(=O)Nc3cc(Cl)nc(Cl)c3)cc(C(C)C)c12`, the IC50 (as a rule, the concentration that inhibits the measured activity by half) in assay [1] was 19 nM; in assay [2], 12 nM.

The values are drawn from ChEMBL document CHEMBL5726257, “Sphingosine 1-phosphate receptor antagonists” (2017).
